Entries after “also recorded” stand apart in the source; their conditions may differ.
How the values were obtained:
murine FLT3L-DCs = assay: Murine bone marrow-derived FLT3L-DCs hyperactivation; type: cell-based, mice; conditions: R848 alone vs R848 in combination with DGP; FIG. 4C
Procedure: Murine bone marrow-derived FLT3L-DCs generation. Leg femur and tibia were removed from mice, cut with scissors, and flushed into sterile tubes. Bone marrow suspension was treated with ACK for 1 minute, then passed through a 40 um cell strainer. Cells were counted and resuspended in media consisting of complete IMDM containing 10% FBS, penicillin and streptomycin, and supplements of L-glutamine and sodium pyruvate (I10). […] For each experiment, 5 mice are used to collect BM and to generate DCs.
Lipid preparation. […] Lipid stocks were then further diluted in PBS to treat cells.
Murine bone marrow-derived FLT3L-DCs hyperactivation. BMDCs were harvested on day 8 post differentiation, washed with PBS, and re-plated in FLT3L-containing I10 at a concentration of 1×10^5 cells/mL. Cells were primed with or without 1 μg/mL R848 (final) then treated with or without a hyperactivating lipid (or vehicle control). Forty-eight hours post stimulation, supernatants were collected for cytokine measurement. Viability was measured using the CellTiter-Glo assay (Promega) which measures ATP content from cells. Fifty microliters of CellTiter-Glo reagent were added to 50 μL of cells. Luminescence was quantified on a SpectraMax m5e plate reader using an integration time of 500 milliseconds. Viability data were set relative to control conditions where cells were treated with R848. IL-1β and TNFα cytokine were measured using sandwich ELISAs (Invitrogen).

FLT3L-DCs = assay: Migration of injected FLT3L-DCs to skin draining lymph nodes; type: in vivo, mice; conditions: DCs stimulated with R848 1 μg/mL and 41 uM lipid, injected SC, 24 hours; FIG. 5; listed as DGP
Procedure: Murine bone marrow-derived FLT3L-DCs hyperactivation for migration assays. BMDCs were harvested on day 8 post differentiation, washed with PBS, and re-plated in FLT3L-containing I10 at a concentration of 1×10^6 cells/mL. For DC hyperactivation, 500 μl of R848 was added at a final concentration of 1 μg/mL, and 500 μl of lipids (DGPC (Compound 1), DGP (Compound 2), DHC (Compound 7) or DHMC (Compound 8) or 22:0 lyso PC) prepared in 4% KP407 was diluted to a final concentration of 41 uM. Cells were incubated for 24 hours at 37° C. on a tube rotator. Twenty-four hours post-stimulation, cells were washed with PBS and stained with CFSE (1:1000) for 30 min at 37° C. in the dark. DCs were then counted and 1.10×10^6 cells were injected subcutaneously (SC) in 100 ul per mouse. 24 hours post-injection, the skin draining lymph nodes (dLN) were dissected. A single cell suspension was prepared, and cells were stained in PBS with Live Dead Fixable dye (ThermoFisher) for 20 min at 4° C. Cells were then washed again and stained for 20 min at 4° C. in MACS buffer (PBS with 1% FCS and 2 mM EDTA) containing the following fluorescently conjugated antibodies: anti-CD11c and anti-I-A/I-E (MHC-II). […] Data were analyzed using FlowJo software (Tree Star). […]

[1] = DGP DP sizing (Malvern Mastersizer 3000); type: physicochemical
Procedure: DGP (Compound 2) DP Synthesis. DGP DP was synthesized at a 3 mL scale using the following procedure. […] Sterile 10×PBS was added to the solution resulting in a 1×PBS concentration and 4 mg/mL DGP DP concentration. The mixture was then stirred at 1000 rpm for another 30 min at RT. For DGP DP prepared at 12 or 18 mL scale, the same procedure was followed, with volumes, vials, and stir bars scaled up to achieve the 4 mg/mL DGP DP preparation.
In cases where DGP DS was micronized prior to use, DGP DS underwent jet milling using an M-50 (Microtech Engineering Company) to reduce DS size to an average of 3-5 μm. […] For in vitro studies, DGP DP samples were sonicated at 2 W (low energy) or 4 W (medium energy) over two 30 s intervals. For in vivo studies, DGP DP samples were sonicated at 3 W over two 30 s intervals as a mid-energy assessment.
DGP (Compound 2) DP Sizing. DGP DP size was determined using a Malvern Mastersizer 3000 with a Hydro SV attachment. Briefly, DGP DP was diluted to 1 mg/mL in water prior to sizing. The 1 mg/mL DGP DP was added drop-wise to a measurement chamber filled with water under spinning until laser obscuration was 3-5%. Five measurements were taken per sample, with the average of the measurements reported.

[2] = Serum chemokines and cytokines after SC injection; type: in vivo, mice; conditions: SC injection; 2, 24 and 48 hours post injection; FIG. 49
Procedure: Lipid Preparation. […] Lipids were used for chemical injections or DC treatment within one hour of their preparation.
Subcutaneous (SC) Injection. Mice were placed under Isoflurane for a few min for anesthesia. Tubes containing the chemicals were vortexed for 30 seconds, then loaded with a 1 mL Sub-Q syringe.
Blood Collection. Mice were placed under Isoflurane for approximately 10 min for anesthesia. Using a 21G needle, mice were gently poked through the skin to the submandibular space to induce bleeding. Five-Six drops were collected in a mini collect K2EDTA blood collection tube. Blood samples were transported back to Corner Therapeutics lab on ice. The blood was then centrifuged at 1500×g for 5 min. After centrifugation, blood was collected into a 96-well round bottom plate and stored at −80° C.
Measurement of Serum Chemokines and Cytokines. Secreted cytokines were measured in the supernatant by cytokine bead array using the LEGENDplex™ Mouse Murine Proinflammatory Chemokine, Murine Cytokine Release Syndrome Legendplex and LEGENDplex™ Mouse Cytokine Panel 2 (Biolegend) according to the manufacturer's protocol. Data were collected using a Quanteon Novocyte flow cytometer and analyzed using the cloud-based software provided by Biolegend.

[3] = 18 mL scale, no DS or DP modification

SMILES: CCCCCCCCCCCCCCCCCCCCCCOC[C@@H](O)COP(=O)(O)O [Compound 2, 1-docosyl-sn-glycerol-3-phosphate]
- TNFα secretion (murine FLT3L-DCs): comparable
- DC migration from the skin to the dLN (FLT3L-DCs): significantly enhanced DC migration from the skin to the dLN; also recorded: migration activity was significantly higher than DGPC (Compound 1)
- Particulate Size D10 ([1]; 3 mL scale): 6.83 μm
- Particulate Size D50 ([1]; 3 mL scale): 13.8 μm
- Particulate Size D90 ([1]; 3 mL scale): 27.5 μm
- Particulate Size D10 ([1]; 12 mL scale): 12.0 μm
- Particulate Size D50 ([1]; 12 mL scale): 25.0 μm
- Particulate Size D90 ([1]; 12 mL scale): 51.7 μm
- average size ([1]; 12 or 18 mL scale): 26-27 μm
- Particulate Size D10 [1, 3]: 12.9 μm
- Particulate Size D50 [1, 3]: 26.7 μm
- Particulate Size D90 [1, 3]: 56.0 μm
- cytokine and chemokine release in the serum [2]: unable to induce any cytokine or chemokine release in the serum at any timepoint

Reference: patent US20260097111A1, “ETHER LIPIDS FOR HYPERACTIVATION OF MAMMALIAN DENDRITIC CELLS” (priority 2022, published 2026)
